From BindingDB's records for doi:10.1021/acs.jmedchem.6b00703 (Novartis Institutes of Biomedical Research (Nibr), 2016)

Test: Inhibition of PDGFR-beta driven proliferation of rat A10 cells after 68 hrs in presence of rat recombinant PDGF-BB by cell titer-glo luminescence assay

Row | IC50 | Structure (SMILES)
1 | 3 nM | Cn1nccc1-c1ccn2c(C(=O)Nc3cc(C(=O)NCc4ccc(F)c(F)c4)ccc3F)cnc2c1
2 | 7.9 nM | CN1CCN(c2ccccc2CNC(=O)c2ccc(F)c(NC(=O)c3cnc4cc(-c5cccnc5)ccn34)c2)CC1
3 | 3.6 nM | CN1CCN(c2ccccc2CNC(=O)c2ccc(F)c(NC(=O)c3cnc4cc(-c5cnn(C)c5)ccn34)c2)CC1
4 | 19 nM | CN1CCN(c2ccccc2CNC(=O)c2ccc(F)c(NC(=O)c3cnc4cc(-c5cc[nH]n5)ccn34)c2)CC1
5 | 12 nM | Cc1ccc(C(=O)NCc2ccccc2)cc1NC(=O)c1cnn2ccccc12
6 | 35 nM | Cc1ncc(C(=O)NCc2ccccc2N2CCN(C)CC2)cc1NC(=O)c1cnn2cc(-c3ccnn3C)ccc12
7 | 9.2 nM | CN1CCN(c2ccccc2CNC(=O)c2ccc(F)c(NC(=O)c3cnc4cc(-c5ccnn5C)ccn34)c2)CC1
8 | 10 nM | CN1CCN(c2ccccc2CNC(=O)c2ccc(F)c(NC(=O)c3cnn4cc(-c5ccnn5C)ccc34)c2)CC1
9 | 36 nM | CN1CCN(c2ccccc2CNC(=O)c2ccc(F)c(NC(=O)c3cnc4ccccn34)c2)CC1

More lines, now with the values behind:

Row | Structure (SMILES) | IC50
10 | Cc1ccc(NC(=O)c2ccc(CN3CCN(C)CC3)cc2)cc1Nc1nccc(-c2cccnc2)n1 | 162 nM
11 | C[C@@H]1CCC[C@H](C)N1CCNC(=O)c1ccc(F)c(NC(=O)c2cnc3cc(-c4ccnn4C)ccn23)c1 | 8.7 nM
12 | Cn1cc(-c2ccn3c(C(=O)Nc4cc(C(=O)NCCN5CCCC5(C)C)ccc4F)cnc3c2)cn1 | 1.7 nM
13 | Cn1nccc1-c1ccn2c(C(=O)Nc3cc(C(=O)NCC4CCC(C)(C)O4)ccc3F)cnc2c1 (configuration not stated) | 2.7 nM
14 | CN(CCNC(=O)c1ccc(F)c(NC(=O)c2cnc3cc(-c4ccnn4C)ccn23)c1)C(C)(C)C | 23 nM
15 | Cc1ncc(C(=O)NCCN2CCCC2(C)C)cc1NC(=O)c1cnn2cc(-c3cnn(C)c3)ccc12 | 13 nM
16 | Cn1nccc1-c1ccn2c(C(=O)Nc3cc(C(=O)NCCN4CCCC4(C)C)ccc3F)cnc2c1 | 9.5 nM
17 | CCN(CCNC(=O)c1ccc(F)c(NC(=O)c2cnc3cc(-c4ccnn4C)ccn23)c1)C(C)(C)C | 22 nM
